Measurements from the supplement of paper PMC10307832.

Assays:
Assay in all cases: relative viability (nuclei count vs DMSO), 5 days (fraction); higher = more cells survive
HCC-15 = system: HCC-15
Outline: (§1)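 A single step with final 0.05% Triton X-100, 1% formaldehyde and 1 ug/ml Hoechst fixed the cells and stained nuclei 5 days after treatment. Lung cancer cell lines in 1536-well plates had been treated by pin tool the day after seeding with one drug alone or a fixed anchor-drug dose plus five library-drug doses (not always all listed) in √10 steps, and nuclei were counted on 4× images. Relative viability is the ratio of nuclei in treated wells to nuclei in vehicle wells, taken as the median of duplicate plates.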

NCI-H1734 = system: NCI-H1734
Outline: as §1

HARA = system: HARA
Outline: as §1

NCI-H2009 = system: NCI-H2009
Outline: as §1

NCI-H1993 = system: NCI-H1993
Outline: as §1

SW 1573 = system: SW 1573
Outline: as §1

NCI-H1650 = system: NCI-H1650
Outline: as §1

NCI-H2023 = system: NCI-H2023
Outline: as §1

HCC-78 = system: HCC-78
Outline: as §1

LOU-NH91 = system: LOU-NH91
Outline: as §1

LCLC-97TM1 = system: LCLC-97TM1
Outline: as §1

COR-L23 = system: COR-L23
Outline: as §1

A-427 = system: A-427
Outline: as §1

201T = system: 201T
Outline: as §1

HCC-44 = system: HCC-44
Outline: as §1

ChaGo-K-1 = system: ChaGo-K-1
Outline: as §1

NCI-H441 = system: NCI-H441
Outline: as §1

RERF-LC-KJ = system: RERF-LC-KJ
Outline: as §1

HCC-366 = system: HCC-366
Outline: as §1

NCI-H2126 = system: NCI-H2126
Outline: as §1

NCI-H460 = system: NCI-H460
Outline: as §1

`O=C(O)CCCCC(CCSCc1ccccc1)SCc1ccccc1` (centres undefined) [CPI-613] + CC1(C)CCC(c2ccc(Cl)cc2)=C(CN2CCN(c3ccc(C(=O)NS(=O)(=O)c4ccc(N[C@H](CCN5CCOCC5)CSc5ccccc5)c(S(=O)(=O)C(F)(F)F)c4)cc3)CC2)C1 [Navitoclax] (partner 0.5 µM) was tested, and the relative viability (HCC-15; first compound 5 µM) was 0.625, the relative viability (HCC-15; first compound 15.81 µM) was 0.68 and the relative viability (HCC-15; first compound 50 µM) was 0.612. It also gave a relative viability (HCC-15; first compound 158.11 µM) of 0.309, a relative viability (HCC-15; first compound 500 µM) of 0.278 and a relative viability (NCI-H1734; first compound 5 µM) of 0.776. The relative viability (NCI-H1734; first compound 15.81 µM) was 0.677, the relative viability (NCI-H1734; first compound 50 µM) was 0.75 and the relative viability (NCI-H1734; first compound 158.11 µM) was 0.545. For the same compound, the relative viability (NCI-H1734; first compound 500 µM) was 0.117, the relative viability (HARA; first compound 5 µM) was 1.14 and the relative viability (HARA; first compound 15.81 µM) was 1.13. The relative viability (HARA; first compound 50 µM) was 1.16, the relative viability (HARA; first compound 158.11 µM) was 0.504 and the relative viability (HARA; first compound 500 µM) was 0.0371. The relative viability (NCI-H2009; first compound 5 µM) was 1.18, the relative viability (NCI-H2009; first compound 15.81 µM) was 1.08 and the relative viability (NCI-H2009; first compound 50 µM) was 1.11. For the same compound, the relative viability (NCI-H2009; first compound 158.11 µM) was 0.264, the relative viability (NCI-H2009; first compound 500 µM) was 0.0303 and the relative viability (NCI-H1993; first compound 5 µM) was 0.917. It also gave a relative viability (NCI-H1993; first compound 15.81 µM) of 0.917, a relative viability (NCI-H1993; first compound 50 µM) of 1.06 and a relative viability (NCI-H1993; first compound 158.11 µM) of 0.64. For the same compound, the relative viability (NCI-H1993; first compound 500 µM) was 0.408, the relative viability (SW 1573; first compound 5 µM) was 0.871 and the relative viability (SW 1573; first compound 15.81 µM) was 0.962. It also gave a relative viability (SW 1573; first compound 50 µM) of 0.792, a relative viability (SW 1573; first compound 158.11 µM) of 0.819 and a relative viability (SW 1573; first compound 500 µM) of 0.904. It also gave a relative viability (NCI-H1650; first compound 5 µM) of 1.17, a relative viability (NCI-H1650; first compound 15.81 µM) of 1.25 and a relative viability (NCI-H1650; first compound 50 µM) of 1.08. It also gave a relative viability (NCI-H1650; first compound 158.11 µM) of 0.16, a relative viability (NCI-H1650; first compound 500 µM) of 0.034 and a relative viability (NCI-H2023; first compound 5 µM) of 1.01. It also gave a relative viability (NCI-H2023; first compound 15.81 µM) of 0.997, a relative viability (NCI-H2023; first compound 50 µM) of 0.951 and a relative viability (NCI-H2023; first compound 158.11 µM) of 0.103. The relative viability (NCI-H2023; first compound 500 µM) was 0.0259, the relative viability (HCC-78; first compound 5 µM) was 0.731 and the relative viability (HCC-78; first compound 15.81 µM) was 0.749. For the same compound, the relative viability (HCC-78; first compound 158.11 µM) was 0.783, the relative viability (HCC-78; first compound 500 µM) was 0.876 and the relative viability (LOU-NH91; first compound 5 µM) was 0.683. The relative viability (LOU-NH91; first compound 15.81 µM) was 0.653, the relative viability (LOU-NH91; first compound 50 µM) was 0.664 and the relative viability (LOU-NH91; first compound 158.11 µM) was 0.682. For the same compound, the relative viability (LOU-NH91; first compound 500 µM) was 0.579, the relative viability (LCLC-97TM1; first compound 5 µM) was 0.299 and the relative viability (LCLC-97TM1; first compound 15.81 µM) was 0.502. For the same compound, the relative viability (LCLC-97TM1; first compound 50 µM) was 0.658, the relative viability (LCLC-97TM1; first compound 158.11 µM) was 0.079 and the relative viability (LCLC-97TM1; first compound 500 µM) was 0.0431. For the same compound, the relative viability (COR-L23; first compound 5 µM) was 1.07, the relative viability (COR-L23; first compound 15.81 µM) was 0.913 and the relative viability (COR-L23; first compound 50 µM) was 0.987. For the same compound, the relative viability (COR-L23; first compound 158.11 µM) was 0.327, the relative viability (COR-L23; first compound 500 µM) was 0.0196 and the relative viability (A-427; first compound 5 µM) was 0.974. It also gave a relative viability (A-427; first compound 15.81 µM) of 0.919, a relative viability (A-427; first compound 50 µM) of 0.829 and a relative viability (A-427; first compound 158.11 µM) of 0.342. It also gave a relative viability (A-427; first compound 500 µM) of 0.273, a relative viability (201T; first compound 5 µM) of 1.23 and a relative viability (201T; first compound 15.81 µM) of 1.2. For the same compound, the relative viability (201T; first compound 50 µM) was 1.17, the relative viability (201T; first compound 158.11 µM) was 1.14 and the relative viability (201T; first compound 500 µM) was 1.09. For the same compound, the relative viability (HCC-44; first compound 5 µM) was 1.03, the relative viability (HCC-44; first compound 15.81 µM) was 1.08 and the relative viability (HCC-44; first compound 50 µM) was 1.07. For the same compound, the relative viability (HCC-44; first compound 158.11 µM) was 0.322, the relative viability (HCC-44; first compound 500 µM) was 0.0385 and the relative viability (ChaGo-K-1; first compound 5 µM) was 0.671. It also gave a relative viability (ChaGo-K-1; first compound 15.81 µM) of 0.982, a relative viability (ChaGo-K-1; first compound 50 µM) of 0.935 and a relative viability (ChaGo-K-1; first compound 158.11 µM) of 0.882. For the same compound, the relative viability (ChaGo-K-1; first compound 500 µM) was 0.643, the relative viability (NCI-H441; first compound 5 µM) was 0.564 and the relative viability (NCI-H441; first compound 15.81 µM) was 0.805. The relative viability (NCI-H441; first compound 50 µM) was 0.731, the relative viability (NCI-H441; first compound 158.11 µM) was 0.186 and the relative viability (NCI-H441; first compound 500 µM) was 0.0161. The relative viability (RERF-LC-KJ; first compound 5 µM) was 1.01, the relative viability (RERF-LC-KJ; first compound 15.81 µM) was 0.747 and the relative viability (RERF-LC-KJ; first compound 50 µM) was 1.27. The relative viability (RERF-LC-KJ; first compound 158.11 µM) was 0.964, the relative viability (RERF-LC-KJ; first compound 500 µM) was 0.756 and the relative viability (HCC-366; first compound 5 µM) was 1.03. The relative viability (HCC-366; first compound 15.81 µM) was 0.99, the relative viability (HCC-366; first compound 50 µM) was 1.1 and the relative viability (HCC-366; first compound 158.11 µM) was 0.774. For the same compound, the relative viability (HCC-366; first compound 500 µM) was 0.0086, the relative viability (NCI-H2126; first compound 5 µM) was 0.9 and the relative viability (NCI-H2126; first compound 15.81 µM) was 0.805. The relative viability (NCI-H2126; first compound 50 µM) was 0.815, the relative viability (NCI-H2126; first compound 158.11 µM) was 0.662 and the relative viability (NCI-H2126; first compound 500 µM) was 0.645. The relative viability (NCI-H460; first compound 5 µM) was 1.12, the relative viability (NCI-H460; first compound 15.81 µM) was 1.09 and the relative viability (NCI-H460; first compound 50 µM) was 1.03. It also gave a relative viability (NCI-H460; first compound 158.11 µM) of 0.29 and a relative viability (NCI-H460; first compound 500 µM) of 0.0105.
